Data on two compounds can be found in patent US5591726A, “Heterocyclylalkyl diarylboron ester and thioester fungicidal agents” (American Cyanamid Company, priority 1994, dated 1997).

The subject of experiment [1] is Septoria nodorum (propiconazole-resistant and -sensitive strains). In kind it is cell-based. To be noted: EC50 resistant strain / EC50 sensitive strain, 50 to 54 hours.
In experiment [2] the test system is Ustilago avenae (triadimefon-resistant and -sensitive strains). Type of experiment: cell-based. To be noted: EC50 resistant strain / EC50 sensitive strain, 50 to 54 hours.

For `OC(c1ccc(Cl)cc1)(c1cncnc1)c1ccccc1Cl` (stereo not drawn) [Fenarimol, reference compound], the “Resistance Factor, Septoria nodorum” value in experiment [1] is listed as 9.6. In experiment [2], the “Resistance Factor, Ustilago avenae” value came out at 9.9.
As for `CC(C)(C)C(O)(CCc1ccc(Cl)cc1)Cn1cncn1` (stereo not drawn) [Tebuconazole, reference compound], in experiment [1], the “Resistance Factor, Septoria nodorum” value was 6.1.
